Patent US11752115B2, “PPAR-alpha agonist treatment of neuropsychiatric disorders” (THE BOARD OF TRUSTEES OF THE UNIVERSITY OF ILLINOIS, priority 2017, dated 2023)
Where two headings read alike, the source gives them in different places.

Assays:
[1] = test system: PPD patients; conditions: intravenous infusions, vs only 9% of placebo-treated; cited from earlier work
[2] = test system: SI mice; test: Locomotor activity (Example 1); assay type: in vivo; conditions: PEA 5, 10, 20 mg/kg i.p., G7 10 mg/kg i.p., G6 3 mg/kg i.p., FIN 50 mg/kg s.c.
Description: Locomotor activity. […] Horizontal sensors beam interruptions measured horizontal activity for a total of 10 min.

[3] = test system: SI mice; test: Elevated plus maze; assay type: in vivo; conditions: for time spent in the open arms (increase vs vehicle-treated SI mice): […] before test; for prevention of the anxiolytic effect of PEA, vs. PEA 10 mg/kg (FIG. 3D): PEA 10 mg/kg i.p. 1 h before test
Description: Elevated plus maze. Elevated plus maze tests were performed as previously (28). Mice chose between entering open or closed arms that extend from a central platform. An arm entry was scored when four legs were within the arm. Behavior was recorded for 5 min. The time spent and the number of open arm entries were used as index of anxiety-like behavior.

[4] = test system: allopregnanolone (Allo) levels; test: Brain neurosteroid measurements (GC-MS): Allo; assay type: in vivo, mice; conditions: for Allo content in the olfactory bulb vs. PEA-treated mice (block of PEA effect): PEA 10 mg/kg i.p. 1 h before sacrifice
Description: (§1) Brain neurosteroid measurements. Extraction, derivatization and quantification of unconjugated neurosteroids was described previously (32). Steroids were extracted and then purified and separated by high-performance liquid chromatography (HPLC) after addition of deuterium-labeled internal standards (25). The aqueous phase (2 ml) containing sulfated neurosteroids underwent a solvolysis. After derivatization, gas chromatography-mass spectrometry analysis in the standard electron impact mode as previously reported (24, 25).

[5] = test system: TNF-α; conditions: depressed patients, responders [82]; cited from earlier work
[6] = test system: cannabinoid receptor type 1 (CB1); conditions: direct activation of CB1 (Vallée et al., 2014); cited from earlier work
[7] = test system: SI mice; test: Contextual fear conditioning, extinction and extinction retention; assay type: in vivo; conditions: PPAR-α KO mice; 5 mg/kg i.p.
Description: (§2) Contextual fear conditioning. Contextual fear conditioning was performed as previously (25).
(§3) Conditioning trial. Mice were placed in the chamber and exposed for 8 min to a conditioned stimulus and an electric foot-shock (unconditioned stimulus).
(§4) Reactivation. 24 h after conditioning, mice were re-exposed for 5 min to the context for retrieval/reactivation and treated immediately after reactivation.
(§5) Extinction and extinction retention. 24 h after reactivation, mice were re-introduced for 5 min in the chamber once daily for 5 days and freezing time was an index of contextual fear responses. After an interval of 8 days, mice were re-exposed to the chamber to determine extinction retention (25).

[8] = as above; assay type: in vivo, mice; conditions: GH mice; 5 mg/kg i.p.
Description: as §2, §3, §4, §5

[9] = test system: early and late adolescent SI mice; conditions: for EC50 dose, reduction of aggression: i.p., 60 min before test; for time after which aggression rebounded (duration of anti-aggressive effect): early and late adolescent SI mice
Description: Resident-Intruder Test. To test aggression, a male intruder mouse of the same strain as the resident mouse, was placed in a resident home cage (24 cm×17 cm×12 cm) and resident-intruder interactions were videotaped for 10 min. Aggressive behavior of SI mice was characterized by an initial pattern of exploratory activity around the intruder, followed by rearing and tail rattle, accompanied within a few seconds by wrestling and/or a violent biting attacks. The total number of wrestling and attacks during the 10 min observation period was measured as previously described (Pinna et al., 2003, 2005), 60 min after drug administration. For every drug studied, SI mice were first exposed to three behavioral sessions, and then the average of basal aggression level for every single SI mouse was calculated; 2 days later, aggression levels following treatment were tested. Treated animals showing a reduction of the number of attacks less than 30% vs. the respective basal control values were considered as “low- to non-responders.”
Statistical Analyses. Results are presented as means±SEMs unless otherwise indicated. Student's t-test, one-way ANOVA and two-way ANOVA repeated measures followed by Bonferroni post hoc test were performed to analyze experimental data; significance was set at p<0.05. EC50 values were calculated from dose-response curves analyzed by the “quantal dose-response: probits test” using the computer program of Tallarida and Murray equipped with a statistical package (Tallarida and Murray, 1987). Statistical comparisons among the different EC50s were performed with the “cohort package software.” (available at cohort.com).

[10] = test system: SI mice; test: Forced swim test (FST); assay type: in vivo
Description: (§6) Forced swim test and tail suspension test. The forced swim test (FST) or a tail suspension test (TST) was performed as previously (30, 31). FST sessions were video-recorded for 6 min and the last 4 min were analyzed (30). TST duration was 6 min. Immobility time was an index of depressive-like behavior.

[11] = test system: SI mice; test: Tail suspension test (TST); assay type: in vivo
Description: as §6

[12] = test system: Pregnenolone (PE); test: Brain neurosteroid measurements (GC-MS): pregnenolone; assay type: in vivo; conditions: SI mice, 1 h
Description: as §1

[13] = test system: 5α-dihydroprogesterone (5α-DHP); test: Brain neurosteroid measurements (GC-MS): 5α-DHP; assay type: in vivo; conditions: SI mice, 1 h
Description: as §1

[14] = test system: Progesterone (Prog) levels; test: Brain neurosteroid measurements (GC-MS): progesterone; assay type: in vivo; conditions: SI mice, 1 h
Description: as §1

[15] = test system: Allo sulfate (Allo-S) and other sulfated neurosteroids; test: Brain sulfated neurosteroid measurements (GC-MS); assay type: in vivo; conditions: SI mice; for Allo-S, hippocampus (increase): 60 minutes before sacrifice
Description: as §1

[16] = test system: early and late adolescent SI mice; test: Locomotor activity (Example 2); conditions: all doses tested, i.p., 60 min before test
[17] = SI mice, 10 mg/kg i.p., 1 h before test
[18] = PPAR-α KO SI mice, 10 mg/kg i.p., 60 minutes before test

Compound: CC(=O)[C@H]1CC[C@H]2[C@@H]3CC[C@H]4C[C@H](O)CC[C@]4(C)[C@H]3CC[C@]12C [allopregnanolone]
- patients with rapid and long lasting remission of depressive symptoms [1]: 70%

Compound: CC(C)(Sc1ccc(CCN(CCCCC2CCCCC2)C(=O)NC2CCCCC2)cc1)C(=O)O [G7, GW7647]
- sedation / effect on locomotor activity [2]: do not induce sedation
- number of entries in the open arms (change vs vehicle-treated SI mice) [3, 17]: +247%
- time spent in the open arms (change vs vehicle-treated SI mice) [3, 17]: +506%
- Allo levels, olfactory bulb (increase vs vehicle-treated SI mice) ([4]; SI mice, 10 mg/kg i.p., 1 h): +89%

Compound: CC(C)OC(=O)C(C)(C)Oc1ccc(C(=O)c2ccc(Cl)cc2)cc1 [fenofibrate, Fenofibrate]
- sedation / effect on locomotor activity [2]: do not induce sedation
- time spent in the open arms (increase vs vehicle-treated SI mice) ([3]; SI mice, 7.5 mg/kg s.c.): +88%
- time spent in the open arms (increase vs vehicle-treated SI mice) ([3]; SI mice, 30 mg/kg s.c.): +442%
- time spent in the open arms (increase vs vehicle-treated SI mice) ([3]; SI mice, 120 mg/kg s.c.): +552%

Compound: CN(C)CCC[C@@]1(c2ccc(F)cc2)OCc2cc(C#N)ccc21 [escitalopram]
- lower expression of TNF-α after successful treatment [5]: 30%

Compound: CCCCCc1cc(O)c2c(c1)OC(C)(C)[C@@H]1CCC(C)=C[C@@H]21 [THC, 19-tetrahydrocannabinol]
- increase of the synthesis of pregnenolone [6]: 30 fold

Compound: CCCCCCCCCCCCCCCC(=O)NCCO [PEA, N-Palmitoylethanolamine]
- contextual fear responses in PPAR-α KO mice [7]: failed to affect contextual fear responses
- contextual fear responses in GH mice [8]: failed to affect contextual fear responses
- sedation / effect on locomotor activity [2]: do not induce sedation
- reduction of the number of attacks vs. basal value ([9]; early SI mice, 10 mg/kg i.p.): −57%
- reduction of the number of attacks vs. basal value ([9]; early SI mice, 15 mg/kg i.p.): −75%
- reduction of the number of attacks vs. basal value ([9]; early SI mice, 20 mg/kg i.p.): −86%
- EC50 dose, reduction of aggression ([9]; early adolescent SI mice (PND 21)): 8 mg/kg
- reduction of the number of attacks vs. basal value ([9]; late SI mice, 10 mg/kg i.p.): −81%
- reduction of the number of attacks vs. basal value ([9]; late SI mice, 15 mg/kg i.p.): −84%
- reduction of the number of attacks vs. basal value ([9]; late SI mice, 20 mg/kg i.p.): −91%
- EC50 dose, reduction of aggression ([9]; late adolescent SI mice (PND 45)): 6.5 mg/kg
- duration of anti-aggressive effect ([9]; single dose 10 mg/kg and 15 mg/kg, late SI adolescent mice): less than 3 days
- time after which the effect was extinguished ([9]; single dose 20 mg/kg, late SI mice): 5 days
- duration of anti-aggressive effect (persisted) ([9]; single dose 20 mg/kg, late adolescent SI mice): 3 days
- time after which aggressive behavior was reinstated ([9]; single dose 10, 15, and 20 mg/kg, early SI mice): 3 days
- time after which aggressive behavior was reinstated ([9]; single dose 10 and 15 mg/kg, late SI mice): 3 days
- anxiolytic effect in GH mice (elevated plus maze) ([3]; GH mice, 5-10 mg/kg i.p.): had no effect
- number of entries in the open arms (vs vehicle) [3, 18]: +6%
- time spent in the open arms (vs vehicle) [3, 18]: −1%
- time of immobility in the FST in GH-control animals ([10]; GH-control mice, 10 mg/kg): lack of effect
- time of immobility in the FST vs vehicle-treated mice ([10]; PPAR-α KO mice, 10 mg/kg i.p.): +5%
- time of immobility in the TST in GH-control animals ([11]; GH-control mice, 10 mg/kg): lack of effect
- time of immobility in the TST vs vehicle-treated mice ([11]; PPAR-α KO mice, 10 mg/kg i.p.): +12%
- Pregnenolone (PE), olfactory bulb (increase) ([12]; 5 mg/kg i.p.): +50%
- Pregnenolone (PE), olfactory bulb (increase) ([12]; 10 mg/kg i.p.): +69%
- 5α-dihydroprogesterone (5α-DHP), hippocampus (increase) ([13]; 10 mg/kg i.p.): +64%
- 5α-dihydroprogesterone (5α-DHP), hippocampus (increase) ([13]; 20 mg/kg i.p.): +87%
- Progesterone (Prog) levels, striatum (increase) ([14]; 10 mg/kg i.p.): +356%
- Progesterone (Prog) levels, amygdala (increase) ([14]; 20 mg/kg i.p.): +223%
- Progesterone (Prog) levels, hippocampus (increase) ([14]; 20 mg/kg i.p.): +3128%
- Progesterone (Prog) levels, striatum (increase) ([14]; 20 mg/kg i.p.): +594%
- Allo-S, hippocampus (increase) ([15]; 10 mg/kg i.p.): +100%
- Allo-S, hippocampus (increase) ([15]; 20 mg/kg i.p.): +104%
- other sulfated neurosteroid levels (PE sulfate, PA sulfate, DHEA sulfate) ([15]; olfactory bulb and hippocampus, 5, 10 and 20 mg/kg i.p.): did not affect
- Allo concentrations, olfactory bulb of GH mice ([4]; GH mice, 20 mg/kg i.p., 60 minutes before sacrifice): does not modify
- Allo levels, olfactory bulb of PPAR-α KO mice ([4]; SI PPAR-α KO mice, 10 mg/kg i.p., 1 h before sacrifice): failed to affect
- Allo levels in the serum (peripheral levels) ([4]; SI mice, 10 mg/kg i.p., 1 h before sacrifice): failed to change
- Allo levels, striatum ([4]; SI mice, 5, 10 and 20 mg/kg i.p., 1 h): failed to change

Compound: CNCC[C@H](Oc1ccc(C(F)(F)F)cc1)c1ccccc1 [S-FLX, S-fluoxetine]
- reduction in the number of attacks vs. basal value ([9]; late SI mice, 0.75 mg/kg i.p.): −52%
- time after which aggression rebounded (duration of anti-aggressive effect) ([9]; single dose 0.375 mg/kg): 1 days
- time after which aggression rebounded (duration of anti-aggressive effect) ([9]; single dose 0.75 mg/kg and […]): 3 days
- exploratory / locomotor activity [16]: did not reduce

Compound: CCC(=O)NC[C@H](Cc1ccc(OCCc2nc(-c3ccccc3)oc2C)cc1)N/C(C)=C\C(=O)c1ccc(C(F)(F)F)cc1 [G6, GW6471]
- sedation / effect on locomotor activity [2]: do not induce sedation
- prevention of the anxiolytic effect of PEA, vs. PEA 10 mg/kg (FIG. 3D) ([3]; SI mice, 3 mg/kg i.p. […] before test): −78%
- Allo content in the olfactory bulb vs. PEA-treated mice (block of PEA effect) ([4]; SI mice, 3 mg/kg i.p. […] before sacrifice): −48%

Compound: CC(C)(C)NC(=O)[C@H]1CC[C@H]2[C@@H]3CC[C@H]4NC(=O)C=C[C@]4(C)[C@H]3CC[C@]12C [FIN, Finasteride]
- sedation / effect on locomotor activity [2]: do not induce sedation
- prevention of the anxiolytic effect of PEA, vs. PEA 10 mg/kg (FIG. 3D) ([3]; SI mice, 50 mg/kg s.c. 2.5 h before test): −68%
- Allo content in the olfactory bulb vs. PEA-treated mice (block of PEA effect) ([4]; SI mice, 50 mg/kg s.c. 2.5 h before sacrifice): −60%
